Key:
[1] = tested on: CML-AP with T315I mutation; experiment: Phase I dose escalation and dose expansion clinical trial: efficacy in CML-AP subjects with T315I mutation; format: in vivo, humans
Description: This study is a single-arm, open-label, dose-escalation and dose-expansion Phase I clinical trial.
The dose-escalation phase of this trial consists of about 8 dose groups, with oral administration under fasting conditions. Subjects in all dose groups will receive a single dose on Day 1 (D1), followed by pharmacokinetic (PK) and tolerability observations. […] After entering the multiple-dose period, subjects in the first dose group will initially receive twice-daily (BID) dosing (if PK data from the single-dose period are available, the dosing frequency during the multiple-dose period may be adjusted based on the PK data). The dosing frequency for subjects in subsequent dose groups after entering the multiple-dose period will be determined based on available PK and tolerability data. Throughout the trial, dosing frequency for all subjects may be adjusted based on continuously updated safety and PK data.
A continuous reassessment method (CRM) based on the principle of the escalation with overdose control (EWOC) design will be used to recommend the next specific dose for each dose escalation, thereby completing dose escalation and determining the maximum tolerated dose (MTD). If both the investigator and sponsor believe that higher dose groups may offer better efficacy and manageable safety, the EWOC-based CRM method may be used to explore higher doses. All enrolled subjects will receive long-term treatment with the test drug and undergo evaluations for safety, tolerability, and preliminary efficacy.
After obtaining certain research data from the dose-escalation phase, the investigator may comprehensively consider safety, efficacy, and other information to decide whether to enroll additional subjects at the MTD and/or lower dose levels to determine the recommended Phase II dose (RP2D). Two to four suitable dosing regimens will be selected for expansion in the target population (including subjects enrolled at the target dose levels during the escalation phase).
A total of 8 dose groups were established: 10 mg bid, 20 mg bid, 40 mg bid, 80 mg bid, 40 mg qd, 80 mg qd, 160 mg qd, and 240 mg qd.
The dose expansion phase was conducted in the following 3 cohorts: • Cohort 1: Subjects with chronic phase (CP) chronic myeloid leukemia (CML) who had previously received at least ≥2 different TKIs and were T315I-negative. A total of 3 dose groups were established: 40 mg qd, 80 mg qd, and 240 mg qd; • Cohort 2: Subjects with chronic phase (CP) chronic myeloid leukemia (CML) who have previously received ≥1 TKI and were T315I-positive. A total of 2 dose groups were established: 40 mg qd and 240 mg qd; • Cohort 3: Subjects with accelerated phase (AP) chronic myeloid leukemia (CML) who have previously received ≥1 TKI, regardless of T315I positivity. A total of 1 dose group was established: 240 mg qd.

[2] = tested on: SUP-B15 cells; experiment: Efficacy study in the SUP-B15 subcutaneous xenograft model; format: in vivo; settings: for TGI (%): after 21 days of administration
Protocol: SUP-B15 cells, a Philadelphia chromosome-positive acute lymphoblastic leukemia cell line, were cultured in vitro using IMDM medium supplemented with 20% fetal bovine serum. When the cell count reached the required level, the cells were harvested, counted, and inoculated.
Animals: NCG mice, female, aged 6-8 weeks, weighing 18-22 grams. A total of 35 mice (including 15 spare mice) were used. The mice were provided by Jiangsu GemPharmatech Co., Ltd. or other qualified suppliers.
Tumor inoculation: 0.1 mL (10×10^6 cells) SUP-B15 cells and 0.1 mL Matrigel (total volume 0.2 mL) were mixed thoroughly and subcutaneously inoculated into the right back of each mouse.
Animal grouping and dosing: Grouping and dosing began when the average tumor volume reached 150-200 mm^3.
Animal Grouping: Animals were weighed and tumor volumes were measured prior to drug administration. Grouping was performed randomly based on tumor volume.
Observation: Daily monitoring of animal health status and mortality, routine checks include observing tumor growth and the impact of drug treatment on daily behavioral performance such as activity levels, food and water intake, weight changes (measured twice a week or every other day), external signs, or other abnormalities. The number of animal deaths and side effects within each group based on the number of animals in each group were recorded.
Test indicators: The test indicators were to examine whether tumor growth is inhibited, delayed, or cured. Tumor diameter was measured three times a week using a vernier caliper. The formula for calculating tumor volume was: V = 0.5a × b^2, where a and b represent the long and short diameters of the tumor, respectively.
The antitumor efficacy of the compounds was evaluated using TGI (%) or the relative tumor proliferation rate T/C (%). TGI (%) reflects the tumor growth inhibition rate.
Relative Tumor Proliferation Rate T/C (%): The calculation formula is as follows: T/C % = TRTV / CRTV × 100% (TRTV: treatment group RTV; CRTV: negative control group RTV). The relative tumor volume (RTV) is calculated based on tumor measurement results, with the formula RTV = Vt / V0, where V0 is the average tumor volume measured at the time of grouping (i.e., d0), and Vt is the average tumor volume at a specific measurement time. TRTV and CRTV use data from the same day.
At the end of the test, tumor weight will be measured, and the Tweight/Cweight percentage will be calculated, where Tweight and Cweight represent the tumor weights of the treatment group and the vehicle control group, respectively.
Data analysis: T-test is used for comparisons between two groups. One-way ANOVA is used for comparisons among three or more groups. […] All data analyses are performed using SPSS 17.0. A p < 0.05 is considered statistically significant.

[3] = CML-AP and T315I mutation, failed or intolerant to third-generation or later TKI therapy
[4] = CML-AP and T315I mutation, failed or intolerant to third-generation or later TKI therapy, 12 evaluable
[5] = CML-AP and T315I mutation, failed or intolerant to third-generation or later TKI therapy, Kaplan-Meier method
[6] = CML-AP subjects with T315I mutation, as of June 2, 2024

SMILES: O=C(Nc1ccc(OC(F)(F)Cl)cc1)c1cnc(N2CC[C@@H](F)C2)c(-c2cnccn2)c1 [Compound A, (R)-N-(4-(chlorodifluoromethoxy)phenyl)-6-(3-fluoropyrrolidin-1-yl)-5-(pyrazin-2-yl)nicotinamide]
- median EFS [1, 3]: 5.55 months
- median PFS [1, 3]: not reached
- median duration of MaHR response [1, 3]: 11.93 months
- median time to achieve CCyR [1, 3]: 4.19 (2.76, 5.62) months
- median time to achieve MCyR [1, 3]: 2.69 (2.69, 2.76) months
- CCyR [1, 4]: 16.7%
- MCyR [1, 4]: 25.0%
- MMR [1, 4]: 8.3%
- MaHR ([1]; CML-AP and T315I mutation, failed or intolerant to third-generation or later TKI therapy, 13 evaluable): 76.9%
- 12-month EFS rate [1, 5]: 18.0%
- 12-month PFS rate [1, 5]: 75.8%
- 18-month cumulative incidence rate of CCyR [1, 6]: 30%
- 18-month cumulative incidence rate of MCyR [1, 6]: 36%
- 18-month cumulative incidence rate of MMR [1, 6]: 15%
- TGI (%) ([2]; 5 mg/kg p.o. qd): 119.5%
- TGI (%) ([2]; 15 mg/kg p.o. qd): 124.7%
- TGI (%) ([2]; 45 mg/kg p.o. qd): 125.6%
- weight loss ([2]; any treatment group (5, 15, 45 mg/kg p.o. qd × 3 weeks)): No significant weight loss

Source: patent publication EP4803080A1, “METHOD FOR TREATING LEUKEMIA” (Shenzhen TargetRx Co., Ltd., priority 2023, dated 2025)
